# Where two headings read alike, the source gives them in different places.
# Tests used:
# human DGKα = human DGKα (Homo sapiens (Human), UniProt P23743); experiment: DGKα ADPGLO assay (detergent/lipid micelle substrate); format: biochemical
# Description: DGK Alpha ADPGLO (Truncated) IC50 (uM)
# The detergent/lipid micelle was prepared by combining 15 g phosphatidylserine (Avanti 840035P) and 1 g diacylglycerol (8008110) and dissolving into 150 mL chloroform in a 2 L round bottom flask. Chloroform was removed under high vacuum by rotary evaporation. […] The lipid/detergent solution was split into 5 mL aliquots and stored at −80° C.
# human DGKζ = human DGKζ (Homo sapiens (Human), UniProt Q13574); experiment: DGKζ LIPGLO assay (extruded liposome substrate, ADP-Glo luminescence); format: biochemical
# [1] = ADPGLO assay, read-out: DGK alpha ADPGLO IC50
# [2] = liposome (LIPGLO) assay, read-out: DGK zeta (liposome assay) IC50
# [3] = truncated DGK alpha, read-out: DGK alpha ADPGLO (Truncated) IC50
# [4] = liposome assay, read-out: DGK zeta LIPGLO IC50
# Chain of human DGKζ (Q13574 other isoform, or with tags, fused parts or gaps): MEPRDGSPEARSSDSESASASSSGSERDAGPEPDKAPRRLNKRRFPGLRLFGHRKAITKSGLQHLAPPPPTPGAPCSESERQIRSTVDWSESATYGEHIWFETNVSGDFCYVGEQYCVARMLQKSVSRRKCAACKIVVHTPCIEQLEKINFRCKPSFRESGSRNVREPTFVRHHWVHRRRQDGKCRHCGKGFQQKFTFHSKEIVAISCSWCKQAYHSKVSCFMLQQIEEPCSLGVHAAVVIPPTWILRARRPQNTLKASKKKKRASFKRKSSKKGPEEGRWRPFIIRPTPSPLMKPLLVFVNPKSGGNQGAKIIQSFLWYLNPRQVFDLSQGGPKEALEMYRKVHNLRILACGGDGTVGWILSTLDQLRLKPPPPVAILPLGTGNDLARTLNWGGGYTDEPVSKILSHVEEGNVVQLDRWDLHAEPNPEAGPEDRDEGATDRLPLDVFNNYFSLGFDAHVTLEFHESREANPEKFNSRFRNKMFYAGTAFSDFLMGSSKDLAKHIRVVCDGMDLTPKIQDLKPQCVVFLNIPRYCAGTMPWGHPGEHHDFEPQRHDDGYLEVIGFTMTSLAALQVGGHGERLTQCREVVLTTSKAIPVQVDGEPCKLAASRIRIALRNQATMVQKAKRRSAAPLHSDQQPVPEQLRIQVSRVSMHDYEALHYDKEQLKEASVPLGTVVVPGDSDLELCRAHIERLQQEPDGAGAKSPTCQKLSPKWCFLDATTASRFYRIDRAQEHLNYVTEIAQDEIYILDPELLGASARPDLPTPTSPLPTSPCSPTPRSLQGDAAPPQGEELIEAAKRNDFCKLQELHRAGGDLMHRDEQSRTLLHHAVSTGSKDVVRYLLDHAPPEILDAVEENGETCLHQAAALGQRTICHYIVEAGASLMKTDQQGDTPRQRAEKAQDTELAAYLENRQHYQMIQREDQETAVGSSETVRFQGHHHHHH
# Chain of human DGKα (P23743 whole entry, looked up, the tested form may be a part): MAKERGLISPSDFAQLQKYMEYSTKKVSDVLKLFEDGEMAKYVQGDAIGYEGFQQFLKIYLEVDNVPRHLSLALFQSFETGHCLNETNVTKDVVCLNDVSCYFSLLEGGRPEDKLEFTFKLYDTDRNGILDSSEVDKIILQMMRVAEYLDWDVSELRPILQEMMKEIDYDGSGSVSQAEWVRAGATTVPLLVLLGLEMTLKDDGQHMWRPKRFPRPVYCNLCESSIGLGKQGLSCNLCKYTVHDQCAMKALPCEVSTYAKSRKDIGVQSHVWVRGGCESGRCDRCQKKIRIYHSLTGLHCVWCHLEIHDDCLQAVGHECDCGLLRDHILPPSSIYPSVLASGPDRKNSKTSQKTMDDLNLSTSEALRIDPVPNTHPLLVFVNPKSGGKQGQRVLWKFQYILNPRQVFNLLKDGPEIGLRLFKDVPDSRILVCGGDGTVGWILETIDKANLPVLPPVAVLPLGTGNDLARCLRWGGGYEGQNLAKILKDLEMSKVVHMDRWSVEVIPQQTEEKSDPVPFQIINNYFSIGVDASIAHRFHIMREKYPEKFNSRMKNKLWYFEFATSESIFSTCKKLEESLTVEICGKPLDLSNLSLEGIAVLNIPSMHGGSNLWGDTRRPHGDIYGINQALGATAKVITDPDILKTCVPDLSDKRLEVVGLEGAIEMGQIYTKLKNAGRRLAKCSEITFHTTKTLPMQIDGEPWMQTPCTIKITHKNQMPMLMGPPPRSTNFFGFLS
Structure (SMILES),IC50 (human DGKα; [1]) [nM],IC50 (human DGKζ; [2]) [nM],IC50 (human DGKα; [3]) [nM],IC50 (human DGKζ; [4]) [nM]
"[2H]C([2H])([2H])n1c(=O)nc(N2C[C@@H](CC)N(C(C)c3ccc(C(F)(F)F)cc3)C[C@@H]2C)c2nc(C#N)ccc21 (single isomer, unassigned) [Example 420]",90,760,,
"CC[C@@H]1CN(c2nc(=O)n(C)c3ccc(C#N)nc23)[C@@H](C)CN1C(C)c1ccc(C(F)(F)F)c(CN(C)C)c1 (stereo partly drawn) [Example 352, 4-((2S,5R)-4-(1-(3-((dimethylamino)methyl)-4-(trifluoromethyl)phenyl)ethyl)-5-ethyl-2-methylpiperazin-1-yl)-1-methyl-2-oxo-1,2-dihydropyrido[3,2-d]pyrimidine-6-carbonitrile]",14900,2720,,
"CC[C@@H]1CN(c2nc(=O)n(C)c3ccc(C#N)nc23)[C@@H](C)CN1C(c1ccc(F)cc1)c1cccc(C(F)F)n1 (stereo partly drawn) [Example 316, 4-((2 S,5R)-4-((6-(difluoromethyl)pyridin-2-yl)(4-fluorophenyl)methyl)-5-ethyl-2-methylpiperazin-1-yl)-1-methyl-2-oxo-1,2-dihydropyrido[3,2-d]pyrimidine-6-carbonitrile]",87,31,,
"CC[C@H]1CN(C(C)c2ccc(C3(C#N)CC3)cc2)[C@H](CC)CN1c1nc(=O)n(C)c2ccc(C#N)nc12 (stereo partly drawn) [Example 263, 4-((2S,5R)-4-(1-(4-(1-cyanocyclopropyl)phenyl)ethyl)-2,5-diethylpiperazin-1-yl)-1-methyl-2-oxo-1,2-dihydropyrido[3,2-d]pyrimidine-6-carbonitrile]",,,290,62
"COC[C@H]1CN(C(C)c2ccc(C(F)(F)F)cc2)[C@H](C)CN1c1nc(=O)n(C)c2ccc(C#N)nc12 (single isomer, unassigned) [Example 410]",220,2370,,
"CC[C@H]1CN(C(C)c2ccc(C(F)(F)F)cc2)[C@H](CC)CN1c1nc(=O)n(C)c2ccc(COC)nc12 (single isomer, unassigned) [Example 425]",83300,12500,,
"CCC(c1ccc(C2CC2)cc1)N1C[C@H](CC)N(c2nc(=O)n(C)c3ccc(C#N)nc23)C[C@H]1CC (stereo partly drawn) [Example 200, 4-((2S,5R)-4-(1-(4-cyclopropylphenyl)propyl)-2,5-diethylpiperazin-1-yl)-1-methyl-2-oxo-1,2-dihydropyrido[3,2-d]pyrimidine-6-carbonitrile]",,,12,13
"CC[C@@H]1CN(c2nc(=O)n(C)c3ccc(C#N)nc23)[C@@H](C)CN1C(c1nc(C2CC2)no1)C(C)C (stereo partly drawn) [Example 366, 4-((2S,5R)-4-(1-(3-cyclopropyl-1,2,4-oxadiazol-5-yl)-2-methylpropyl)-5-ethyl-2-methylpiperazin-1-yl)-1-methyl-2-oxo-1,2-dihydropyrido[3,2-d]pyrimidine-6-carbonitrile]",1450,620,,
"CC[C@@H]1CN(c2nc(=O)[nH]c3ccc(C#N)nc23)[C@@H](C)CN1C(C)c1ccc(C(F)(F)F)cc1 (single isomer, unassigned) [Example 413]",440,750,,
"CCC(C1CCC(F)(F)CC1)N1C[C@H](C)N(c2nc(=O)n(C)c3ccc(C#N)nc23)C[C@H]1C (stereo partly drawn) [Example 460, 4-((2S,5R)-4-(1-(4,4-difluorocyclohexyl)propyl)-2,5-dimethylpiperazin-1-yl)-1-methyl-2-oxo-1,2-dihydropyrido[3,2-d]pyrimidine-6-carbonitrile]",11600,12000,,
"CC[C@H]1CN(C(C)c2ccc(C(C)(C)N3CCOCC3)cc2)[C@H](CC)CN1c1nc(=O)n(C)c2ccc(C#N)nc12 (stereo partly drawn) [Example 247, 4-((2S,5R)-2,5-diethyl-4-(1-(4-(2-morpholinopropan-2-yl)phenyl)ethyl)piperazin-1-yl)-1-methyl-2-oxo-1,2-dihydropyrido[3,2-d]pyrimidine-6-carbonitrile]",,,5870,840
"CCOc1ccc2c(n1)c(N1C[C@@H](CC)N(C(CC)c3ccc(C(F)(F)F)cc3)C[C@@H]1CC)nc(=O)n2C (stereo partly drawn) [Example 438, 4-((2S,5R)-2,5-diethyl-4-(1-(4-(trifluoromethyl)phenyl)propyl)piperazin-1-yl)-6-ethoxy-1-methylpyrido[3,2-d]pyrimidin-2(1H)-one]",175000,250000,,
"CC[C@@H]1CN(c2nc(=O)n(C)c3ccc(C#N)nc23)[C@@H](CC)CN1Cc1ccc(OCC2CC2)cc1 [Example 185, 4-((2S,5R)-4-(4-(Cyclopropylmethoxy)benzyl)-2,5-diethylpiperazin-1-yl)-1-methyl-2-oxo-1,2-dihydropyrido[3,2-d]pyrimidine-6-carbonitrile]",,,270,610
"CC[C@H]1CN(C(C)c2ccc(CN3CCC(O)CC3)cc2)[C@H](CC)CN1c1nc(=O)n(C)c2ccc(C#N)nc12 (stereo partly drawn) [Example 285, 4-((2S,5R)-2,5-diethyl-4-(1-(4-((4-hydroxypiperidin-1-yl)methyl)phenyl)ethyl)piperazin-1-yl)-1-methyl-2-oxo-1,2-dihydropyrido[3,2-d]pyrimidine-6-carbonitrile]",,,4100,8540
"CC[C@H]1CN(C(c2ccc(F)cc2)c2cccc(C(F)F)n2)[C@H](CC)CN1c1nc(=O)n(C)c2ccc(C#N)nc12 (stereo partly drawn) [Example 257, 4-((2S,5R)-4((6-(difluoromethyl)pyridin-2-yl)(4-fluorophenyl)methyl)-2,5-diethylpiperazin-1-yl)-1-methyl-2-oxo-1,2-dihydropyrido[3,2-d]pyrimidine-6-carbonitrile]",,,170,250
"CCC(c1ccc(C(F)(F)F)cc1)N1C[C@H](C)N(c2nc(=O)n(C)c3ccc(C#N)nc23)C[C@H]1COC (single isomer, unassigned) [Example 398]",90,64,,
"CC[C@H]1CN(C(C)c2ccc(CN3CCC(O)CC3)cc2)[C@H](CC)CN1c1nc(=O)n(C)c2ccc(C#N)nc12 (stereo partly drawn) [Example 286, 4-((2S,5R)-2,5-diethyl-4-(1-(4-((4-hydroxypiperidin-1-yl)methyl)phenyl)ethyl)piperazin-1-yl)-1-methyl-2-oxo-1,2-dihydropyrido[3,2-d]pyrimidine-6-carbonitrile]",,,36200,125000
"CC[C@@H]1CN(c2nc(=O)n(C)c3ccc(C#N)nc23)[C@@H](CC)CN1CC1CCC(F)(F)CC1 [Example 269, 4-((2S,5R)-4-((4,4-difluorocyclohexyl)methyl)-2,5-diethylpiperazin-1-yl)-1-methyl-2-oxo-1,2-dihydropyrido[3,2-d]pyrimidine-6-carbonitrile]",,,580,260
"CC[C@H]1CN(C(c2ccc(F)cc2)c2cccc(C(F)F)n2)[C@H](CC)CN1c1nc(=O)n(C)c2ccc(C#N)nc12 (stereo partly drawn) [Example 258, 4-((2S,5R)-4((6-(difluoromethyl)pyridin-2-yl)(4-fluorophenyl)methyl)-2,5-diethylpiperazin-1-yl)-1-methyl-2-oxo-1,2-dihydropyrido[3,2-d]pyrimidine-6-carbonitrile]",,,64,360
"CCC(C1CC1)N1C[C@H](C)N(c2nc(=O)n(C)c3ccc(C#N)nc23)C[C@H]1C (stereo partly drawn) [Example 454, 4-((2S,5R)-4-(1-cyclopropylpropyl)-2,5-dimethylpiperazin-1-yl)-1-methyl-2-oxo-1,2-dihydropyrido[3,2-d]pyrimidine-6-carbonitrile]",14200,28800,,
"CC[C@H]1CN(C(C)c2ccc(C(F)(F)F)cc2)[C@H](CC)CN1c1nc(=O)n(C)c2ccc(OC)nc12 (single isomer, unassigned) [Example 427]",460,4450,,
"CCC(c1ccc(C2CC2)cc1)N1C[C@H](C)N(c2nc(=O)n(C)c3ccc(C#N)nc23)C[C@H]1C (stereo partly drawn) [Example 379, 4-((2S,5R)-4-(1-(4-cyclopropylphenyl)propyl)-2,5-dimethylpiperazin-1-yl)-1-methyl-2-oxo-1,2-dihydropyrido[3,2-d]pyrimidine-6-carbonitrile]",450,3600,,
"CCC(C1CC(F)(F)C1)N1C[C@H](C)N(c2nc(=O)n(C)c3ccc(C#N)nc23)C[C@H]1C (stereo partly drawn) [Example 458, 4-((2S,5R)-4-(1-(3,3-difluorocyclobutyl)propyl)-2,5-dimethylpiperazin-1-yl)-1-methyl-2-oxo-1,2-dihydropyrido[3,2-d]pyrimidine-6-carbonitrile]",7740,6470,,
"CCC(c1ccc(OC(C)C)cc1)N1C[C@H](CC)N(c2nc(=O)n(C)c3ccc(C#N)nc23)C[C@H]1CC (stereo partly drawn) [Example 235, 4-((2S,5R)-2,5-diethyl-4-(1-(4-isopropoxyphenyl)propyl)piperazin-1-yl)-1-methyl-2-oxo-1,2-dihydropyrido[3,2-d] pyrimidine-6-carbonitrile]",,,430,780
"CCC(c1ccc(C2CC2)cc1)N1C[C@H](C)N(c2nc(=O)n(C)c3ccc(C#N)nc23)C[C@H]1C (stereo partly drawn) [Example 378, 4-((2S,5R)-4-(1-(4-cyclopropylphenyl)propyl)-2,5-dimethylpiperazin-1-yl)-1-methyl-2-oxo-1,2-dihydropyrido[3,2-d]pyrimidine-6-carbonitrile]",160,150,,
"CCOc1ccc(C(CC)N2C[C@H](C)N(c3nc(=O)n(C)c4ccc(C#N)nc34)C[C@H]2CC)cc1 (stereo partly drawn) [Example 307, 4-((2S,5R)-4-(1-(4-ethoxyphenyl)propyl)-5-ethyl-2-methylpiperazin-1-yl)-1-methyl-2-oxo-1,2-dihydropyrido[3,2-d]pyrimidine-6-carbonitrile]",140,770,,

# From patent US11584747B2, “Substituted pyridopyrimidinonyl compounds useful as T cell activators” (BRISTOL-MYERS SQUIBB COMPANY, priority 2019, dated 2023)
